{
  "source": "patent US20100249061A1",
  "about": "“OLIGOSACCHARIDES, PREPARATION METHOD AND USE THEREOF, AND PHARMACEUTICAL COMPOSITIONS CONTAINING SAME” (Aventis Pharma S.A., priority 2004, published 2010)",
  "key": {"heparanase": {"biological_target": "T1, heparanase (Homo sapiens, UniProt Q9Y251)", "T1 sequence (Q9Y251 36-543)": "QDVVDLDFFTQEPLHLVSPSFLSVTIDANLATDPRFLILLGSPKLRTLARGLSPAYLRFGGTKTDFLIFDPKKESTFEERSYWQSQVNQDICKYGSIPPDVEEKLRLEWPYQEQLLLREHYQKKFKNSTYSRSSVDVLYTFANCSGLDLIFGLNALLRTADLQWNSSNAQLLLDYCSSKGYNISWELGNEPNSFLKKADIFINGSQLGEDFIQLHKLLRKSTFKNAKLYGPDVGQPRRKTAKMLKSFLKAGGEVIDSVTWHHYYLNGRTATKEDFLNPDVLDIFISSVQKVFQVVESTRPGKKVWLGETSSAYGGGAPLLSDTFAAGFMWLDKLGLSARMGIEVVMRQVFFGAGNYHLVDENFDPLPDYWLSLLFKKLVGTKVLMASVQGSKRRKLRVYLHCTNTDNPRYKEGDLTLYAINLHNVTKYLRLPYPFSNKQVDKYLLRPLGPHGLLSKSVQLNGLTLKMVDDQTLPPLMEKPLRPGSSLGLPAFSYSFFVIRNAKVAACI", "assay": "Heparanase inhibition in an enzymatic system (degradation of fondaparinux, residual anti-factor Xa activity)", "assay_type": "biochemical", "procedure": "The concentration of fondaparinux is determined by virtue of its anti-factor Xa activity.\nThe heparanase is produced by Sanofi-Synthélabo (Labège, France). The reagents for assaying factor Xa are sold by Chromogénix (Montpellier, France).\nIncreasing concentrations of a compound according to the invention, heparanase inhibitor ([…]), are mixed with a fixed concentration of heparanase (for each batch, preliminary experiments make it possible to determine the enzymatic activity sufficient for degradation of 0.45 μg/ml of fondaparinux added). After 5 minutes at 37° C., the mixture is brought into contact with the fondaparinux and left at 37° C. for 1 hour. The reaction is stopped by heating at 95° C. for 5 minutes. The residual fondaparinux concentration is finally measured by adding factor Xa and its specific chromogenic substrate (Ref. S2222).\n50 μl of sodium acetate buffer (0.2 M, pH 4.2) are mixed with 50 μl of fondaparinux (0.45 μg/ml) and 59 μl of a heparanase solution. The mixture is incubated for 1 hour at 37° C. and then for 5 minutes at 95° C. The pH thus goes from 4.2 to 7. 100 μl of the reaction mixture are then mixed with 50 μl of 50 mM Tris buffer containing 175 mM NaCl and 75 mM EDTA, […]. The anti-factor Xa activity of the fondaparinux is measured in the following way:\n100 μl of the solution obtained in step a) are mixed with 100 μl of AT (0.5 μg/ml). The mixture is kept at 37° C. for 2 minutes and 100 μl of factor Xa (7 nkat/ml) are then added. The mixture is kept at 37° C. for 2 minutes and 100 μl of chromogenic substrate (Ref.: S2222) (1 mM) are then added. The mixture is kept at 37° C. for 2 minutes and then 100 μl of acetic acid (50%) are added. The optical density is read at 405 nm. A percentage inhibition is determined relative to the control without inhibitor. A percentage inhibition curve makes it possible to calculate an IC50."}, "[1]": {"assay": "Stability in alkaline medium / physicochemical properties", "settings": "loses 3-O-sulphated terminal glucosamine, converted to pentasaccharide ΔIs-IIaid-GlcA as soon as pH exceeds 8", "procedure": "The depolymerization of the heparin takes place under the following conditions: 3 g of heparin from porcine mucous are dissolved in 30 ml of a solution of 0.2M NaCl, 0.02% BSA, 5 mM Na2HPO4, adjusted to pH 7. The depolymerization temperature is 16° C. 2 IU of heparinase 1 are initially introduced. After 7 days, an additional unit of heparinase 1 is added. After 15 days, the heparin depolymerization is considered to be finished. The reaction is monitored either by analytical […] on a TSK Super SW 2000 column (FIG. 1), or on a CTA-SAX column (FIG. 2a). The enzyme reaction may be considered to be sufficiently advanced when the proportion of oligosaccharides greater than octasaccharide in size is limited and when the two main sulphated hexasaccharides ΔIs-Isid-Isid and ΔIs-Isid-IIsglu in the mixture have been depolymerized to tetrasaccharides. When the enzyme reaction has finished, the solution is filtered through a 0.2 μm membrane and then injected, in 2 stages, onto a GC column filled with Biogel P10 (Bio Rad), in which a 0.2 N NaCl mobile phase circulates (FIG. 3). […] It is therefore very important to slightly acidify (pH between 5 and 6) the entire hexasaccharide fraction."}, "ATIII": {"biological_target": "ATIII (Homo sapiens, UniProt P01008)", "sequence (P01008 33-464, species assumed)": "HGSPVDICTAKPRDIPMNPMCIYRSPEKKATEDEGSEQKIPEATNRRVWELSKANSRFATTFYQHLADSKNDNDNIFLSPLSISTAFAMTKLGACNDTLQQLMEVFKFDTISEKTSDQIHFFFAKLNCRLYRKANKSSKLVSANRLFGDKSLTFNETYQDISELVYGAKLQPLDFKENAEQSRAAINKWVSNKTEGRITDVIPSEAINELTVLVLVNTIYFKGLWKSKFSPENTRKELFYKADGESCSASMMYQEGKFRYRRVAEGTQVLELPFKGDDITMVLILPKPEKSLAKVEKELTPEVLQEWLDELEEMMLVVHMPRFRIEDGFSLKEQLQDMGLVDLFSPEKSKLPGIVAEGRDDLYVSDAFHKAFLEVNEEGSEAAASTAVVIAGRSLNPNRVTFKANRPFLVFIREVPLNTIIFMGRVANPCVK", "assay": "Affinity for ATIII", "assay_type": "binding"}, "[2]": {"settings": "Petitou et al., J. Biol. Chem. (1988); sodium salt; cited from earlier work"}, "[3]": {"biological_target": "T2, heparanase isolated from human peripheral blood leukocytes (PMN supernatant) (Homo sapiens, UniProt Q9Y251)", "T2 construct": "The supernatants containing the heparanase are then collected; from tissue; host or cells: human peripheral blood leukocytes (buffy coats) enriched in PMNs; cell supernatant", "T2 sequence (Q9Y251 36-543)": "T1 sequence (Q9Y251 36-543)", "assay": "Heparanase degradation of 35-S-labelled heparan sulphate proteoglycan, gel permeation chromatography and scintillation counting", "assay_type": "biochemical", "from_the_text": "Radiolabelled heparin/heparan sulphate (HS) is degraded with heparanases, producing low molecular weight HS fragments which can be measured by gel permeation chromatography (FPLC) and counting of the collected fractions by liquid scintillation.\nA uterine fibroblast cell line was used to prepare heparan sulphate (proteoglycan) labelled with 35-S by metabolic labelling. It has been shown that this cell line produces relatively large amounts of various heparan sulphate proteoglycans (HS-PGs), such as syndecans and glypican (Drzeniek et al., Blood 93:2884-2897, 1999).\nThe labelling is carried out by incubating the cells, with a cell density of approximately 1×10^6 cells/ml, in the presence of 35-S-sulphate at 33 μCi/ml in the tissue culture medium for 24 hours. The supernatants are then collected and a protease inhibitor, PMSF (phenylmethylsulfonyl fluoride) (1 mmol/l), is added. […]\n200 μl of 35-S-labelled heparan sulphate (proteoglycans) adjusted to approximately 2200 cpm/ml (cpm=counts per minute) are incubated at 37° C. for 18 hours with 1 μl of PMN supernatant containing the heparanase. 200 μl of the mixture obtained above are sampled on a TSK 4000 gel permeation chromatography column (FPLC), and the fractions are collected and analyzed by liquid scintillation counting.\nThe degradation was measured according to the following formula: […]\nFor example, the percentage degradation is calculated as follows: the sum of the counts (cpm) in fractions 20-33 of the sample after treatment with the heparanase, minus the background noise count (cpm) (fractions 20-33) of the control sample, is divided by the total counts (fractions 12-33) applied to the column. […] A correction for the sulphatase activity is not necessary since no sulphatase activity could be detected.\nThe following heparanase inhibitors: unfractionated heparin (UF-H) and Hexa Iso ATIII were assayed via the protocol described above at three different concentrations. […] The data are expressed as percentage inhibition of the heparanase activity. […]"}},
  "note": "Like-named read-outs stand apart in the source and are kept apart here.",
  "data": [
    {"substance": "ΔIs-IIa-IIs [(Ia)]", "values": [
      {"measurement": "% inhibition", "setting": "heparanase; Concentration 1.00E−4 M", "value": 53.8, "unit": "%"}
    ]},
    {"substance": "ΔIs-IIaid-IIsglu [Hexa Iso ATIII]", "values": [
      {"measurement": "% inhibition", "setting": "heparanase; Concentration 3.00E−5 M", "value": 48.5, "unit": "%"},
      {"measurement": "stability in alkaline medium", "setting": "[1]", "value": "extremely fragile in alkaline medium"},
      {"measurement": "affinity for ATIII", "setting": "ATIII", "value": "no affinity for ATIII"},
      {"measurement": "anti-thrombotic activity", "setting": "[2]", "value": "no anti-thrombotic activity"},
      {"measurement": "anti-thrombotic activity", "setting": "Anti-thrombotic activity", "value": "devoid of anti-thrombotic activity"},
      {"measurement": "heparanase-inhibiting activity (conclusion in words)", "setting": "[3]", "value": "strong heparanase-inhibiting activity"},
      {"measurement": "heparanase-inhibiting activity (conclusion in words)", "setting": "[3]; listed as hexasaccharide Iso ATIII", "value": "very good heparanase inhibitor"},
      {"measurement": "dose dependence of heparanase inhibition", "setting": "[3]; three concentrations, FIG. 2 / FIG. 7", "value": "dose-dependant inhibition"}
    ]},
    {"substance": "ΔIs-Ia-IIs [(Im)]", "values": [
      {"measurement": "% inhibition", "setting": "heparanase; Concentration 3.00E−5 M", "value": 54.1, "unit": "%"}
    ]},
    {"substance": "ΔIs-Is-IIa-IIs [(Ib)]", "values": [
      {"measurement": "% inhibition", "setting": "heparanase; Concentration 1.00E−5 M", "value": 59.9, "unit": "%"}
    ]},
    {"substance": "ΔIs-Is-IIa-IIs [(Ic)]", "values": [
      {"measurement": "% inhibition", "setting": "heparanase; Concentration 3.00E−6 M", "value": 59.2, "unit": "%"}
    ]},
    {"substance": "ΔIs-Is-Ia-IIs [(Id)]", "values": [
      {"measurement": "% inhibition", "setting": "heparanase; Concentration 3.00E−5 M", "value": 53.9, "unit": "%"}
    ]},
    {"substance": "ΔIs-Is-Is-IIa-IIs [(If)]", "values": [
      {"measurement": "% inhibition", "setting": "heparanase; Concentration 3.00E−6 M", "value": 58.4, "unit": "%"}
    ]},
    {"substance": "ΔIs-Is-Is-IIa-IIs [(Ig)]", "values": [
      {"measurement": "% inhibition", "setting": "heparanase; Concentration 1.00E−4 M", "value": 55.8, "unit": "%"}
    ]},
    {"substance": "ΔIs-Is-Is-IIs [(Ie)]", "values": [
      {"measurement": "% inhibition", "setting": "heparanase; Concentration 3.00E−5 M", "value": 59.1, "unit": "%"}
    ]},
    {"substance": "ΔIs-Is-Is-Ia-IIs [(Ih)]", "values": [
      {"measurement": "% inhibition", "setting": "heparanase; Concentration 3.00E−5 M", "value": 55.5, "unit": "%"}
    ]},
    {"substance": "ΔIs-Is-Is-Is-IIs [(Ij)]", "values": [
      {"measurement": "% inhibition", "setting": "heparanase; Concentration 3.00E−5 M", "value": 48.4, "unit": "%"}
    ]}
  ]
}
